Source: PubChem BioAssay (NCI)
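A five-concentration, 48-hour dose response in 96-well plates underlies each endpoint, interpolated linearly between surrounding concentrations. Definition used: TGI = concentration required for complete inhibition of growth.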

How the values were obtained:
Assay in all cases: NCI-60 cell line screen, 48 h
[1] = test system: PC-3 prostate
[2] = test system: NCI-H460 lung
[3] = test system: SNB-75 CNS
[4] = test system: HCT-15 colon
[5] = test system: HL-60(TB) leukemia
[6] = test system: T-47D breast
[7] = test system: SW-620 colon
[8] = test system: U251 CNS
[9] = test system: ACHN renal
[10] = test system: SK-MEL-28 melanoma
[11] = test system: MDA-N
[12] = test system: M14 melanoma
[13] = test system: KM12 colon
[14] = test system: HS 578T breast
[15] = test system: EKVX NSCLC
[16] = test system: BT-549 breast
[17] = test system: A498 renal
[18] = test system: SK-MEL-5 melanoma
[19] = test system: MDA-MB-231 breast
[20] = test system: UACC-62 melanoma
[21] = test system: OVCAR-8 ovarian
[22] = test system: MDA-MB-435
[23] = test system: OVCAR-4 ovarian
[24] = test system: NCI-H226 lung
[25] = test system: RXF 393 renal
[26] = test system: RPMI-8226 leukemia
[27] = test system: 786-0 renal
[28] = test system: MOLT-4 leukemia
[29] = test system: NCI-H23 lung
[30] = test system: CAKI-1 renal
[31] = test system: SK-OV-3 ovarian
[32] = test system: SR leukemia
[33] = test system: SN12C renal
[34] = test system: SNB-19 CNS
[35] = test system: SF-539 CNS
[36] = test system: K-562 leukemia
[37] = test system: TK-10 renal
[38] = test system: HOP-92 NSCLC
[39] = test system: SF-268 CNS
[40] = test system: OVCAR-5 ovarian
[41] = test system: HCT-116 colon
[42] = test system: UO-31 renal
[43] = test system: SK-MEL-2 melanoma
[44] = test system: NCI-H522 lung
[45] = test system: COLO 205 colon
[46] = test system: CCRF-CEM leukemia
[47] = test system: SF-295 CNS
[48] = test system: HT29 colon
[49] = test system: NCI/ADR-RES ovarian
[50] = test system: IGROV1 ovarian
[51] = test system: MALME-3M melanoma
[52] = test system: UACC-257 melanoma
[53] = test system: DU-145 prostate
[54] = test system: A549 NSCLC
[55] = test system: HOP-62 NSCLC
[56] = test system: HCC-2998 colon
[57] = test system: OVCAR-3 ovarian
[58] = test system: MCF7 breast
[59] = test system: LOX IMVI melanoma

Clc1nc(Nc2nc3ccccc3[nH]2)nc(Cl)c1Cc1ccccc1
TGI [1]: > 100 µM | TGI [2]: > 100 µM | TGI [3]: > 100 µM | TGI [4]: > 100 µM | TGI [5]: > 100 µM | TGI [6]: > 100 µM | TGI [7]: > 100 µM | TGI [8]: > 100 µM | TGI [9]: > 100 µM | TGI [10]: > 100 µM | TGI [11]: > 100 µM | TGI [12]: > 100 µM | TGI [13]: > 100 µM | TGI [14]: > 100 µM | TGI [15]: > 100 µM | TGI [16]: > 100 µM | TGI [17]: > 100 µM | TGI [18]: > 100 µM | TGI [19]: > 100 µM | TGI [20]: > 100 µM | TGI [21]: > 100 µM | TGI [22]: > 100 µM | TGI [23]: > 100 µM | TGI [24]: > 100 µM | TGI [25]: > 100 µM | TGI [26]: > 100 µM | TGI [27]: > 100 µM | TGI [28]: > 100 µM | TGI [29]: > 100 µM | TGI [30]: > 100 µM | TGI [31]: > 100 µM | TGI [32]: > 100 µM | TGI [33]: > 100 µM | TGI [34]: > 100 µM | TGI [35]: > 100 µM | TGI [36]: > 100 µM | TGI [37]: > 100 µM | TGI [38]: 70.9 µM | TGI [39]: > 100 µM | TGI [40]: > 100 µM | TGI [41]: > 100 µM | TGI [42]: > 100 µM | TGI [43]: > 100 µM | TGI [44]: > 100 µM | TGI [45]: > 100 µM | TGI [46]: > 100 µM | TGI [47]: > 100 µM | TGI [48]: > 100 µM | TGI [49]: > 100 µM | TGI [50]: > 100 µM | TGI [51]: > 100 µM | TGI [52]: > 100 µM | TGI [53]: > 100 µM | TGI [54]: > 100 µM

CC(=O)C12C[C@](C#N)(N3CCCCCC3)C1C=Cc1ccccc12 (stereo partly specified)
TGI [1]: > 100 µM | TGI [2]: > 100 µM | TGI [3]: > 100 µM | TGI [4]: > 100 µM | TGI [5]: > 100 µM | TGI [6]: > 100 µM | TGI [7]: > 100 µM | TGI [8]: > 100 µM | TGI [9]: > 100 µM | TGI [10]: > 100 µM | TGI [11]: > 100 µM | TGI [12]: > 100 µM | TGI [13]: > 100 µM | TGI [14]: > 100 µM | TGI [15]: > 100 µM | TGI [16]: > 100 µM | TGI [18]: > 100 µM | TGI [19]: > 100 µM | TGI [20]: > 100 µM | TGI [21]: > 100 µM | TGI [22]: > 100 µM | TGI [23]: > 100 µM | TGI [24]: > 100 µM | TGI [25]: > 100 µM | TGI [26]: > 100 µM | TGI [27]: > 100 µM | TGI [28]: > 100 µM | TGI [29]: > 100 µM | TGI [55]: > 100 µM | TGI [30]: > 100 µM | TGI [56]: > 100 µM | TGI [31]: > 100 µM | TGI [32]: > 100 µM | TGI [33]: > 100 µM | TGI [34]: > 100 µM | TGI [35]: > 100 µM | TGI [36]: > 100 µM | TGI [37]: > 100 µM | TGI [57]: > 100 µM | TGI [39]: > 100 µM | TGI [41]: > 100 µM | TGI [42]: > 100 µM | TGI [58]: > 100 µM | TGI [44]: > 100 µM | TGI [45]: > 100 µM | TGI [46]: > 100 µM | TGI [47]: > 100 µM | TGI [48]: > 100 µM | TGI [49]: > 100 µM | TGI [50]: > 100 µM | TGI [52]: > 100 µM | TGI [53]: > 100 µM | TGI [54]: > 100 µM

N#CC12C(=O)N3C(=NC(c4ccccc4)NC3c3ccccc3)C1(C#N)C(c1ccccc1)NC1=C2CCCC1 (stereo unspecified)
TGI [1]: > 100 µM | TGI [2]: > 100 µM | TGI [3]: > 100 µM | TGI [4]: > 100 µM | TGI [5]: > 100 µM | TGI [6]: > 100 µM | TGI [7]: > 100 µM | TGI [8]: > 100 µM | TGI [9]: > 100 µM | TGI [10]: > 100 µM | TGI [11]: > 100 µM | TGI [12]: > 100 µM | TGI [13]: > 100 µM | TGI [14]: > 100 µM | TGI [15]: > 100 µM | TGI [16]: > 100 µM | TGI [17]: > 100 µM | TGI [18]: > 100 µM | TGI [19]: > 100 µM | TGI [20]: > 100 µM | TGI [21]: > 100 µM | TGI [22]: > 100 µM | TGI [23]: > 100 µM | TGI [59]: > 100 µM | TGI [24]: > 100 µM | TGI [25]: > 100 µM | TGI [26]: > 100 µM | TGI [27]: > 100 µM | TGI [28]: > 100 µM | TGI [29]: > 100 µM | TGI [55]: > 100 µM | TGI [30]: > 100 µM | TGI [56]: > 100 µM | TGI [31]: > 100 µM | TGI [33]: > 100 µM | TGI [34]: > 100 µM | TGI [36]: > 100 µM | TGI [37]: > 100 µM | TGI [38]: > 100 µM | TGI [57]: > 100 µM | TGI [39]: > 100 µM | TGI [40]: > 100 µM | TGI [41]: > 100 µM | TGI [42]: > 100 µM | TGI [43]: > 100 µM | TGI [58]: > 100 µM | TGI [44]: > 100 µM | TGI [45]: > 100 µM | TGI [46]: 77.8 µM | TGI [47]: > 100 µM | TGI [48]: > 100 µM | TGI [49]: > 100 µM | TGI [50]: > 100 µM | TGI [51]: > 100 µM | TGI [52]: > 100 µM | TGI [53]: > 100 µM | TGI [54]: > 100 µM

CC(=O)CC(C)(C)NC(=O)[C@@]1(O)CC[C@H]2[C@@H]3CCC4=CC(=O)CC[C@@H]4[C@H]3CC[C@@]21C
TGI [1]: > 100 µM | TGI [2]: > 100 µM | TGI [3]: > 100 µM | TGI [4]: > 100 µM | TGI [5]: > 100 µM | TGI [6]: > 100 µM | TGI [7]: > 100 µM | TGI [8]: > 100 µM | TGI [9]: > 100 µM | TGI [10]: > 100 µM | TGI [11]: > 100 µM | TGI [12]: > 100 µM | TGI [13]: > 100 µM | TGI [14]: > 100 µM | TGI [15]: > 100 µM | TGI [16]: > 100 µM | TGI [17]: > 100 µM | TGI [18]: > 100 µM | TGI [19]: > 100 µM | TGI [20]: > 100 µM | TGI [21]: > 100 µM | TGI [22]: > 100 µM | TGI [23]: > 100 µM | TGI [59]: > 100 µM | TGI [24]: > 100 µM | TGI [25]: > 100 µM | TGI [26]: > 100 µM | TGI [27]: > 100 µM | TGI [28]: > 100 µM | TGI [29]: > 100 µM | TGI [55]: > 100 µM | TGI [56]: > 100 µM | TGI [31]: > 100 µM | TGI [32]: > 100 µM | TGI [33]: > 100 µM | TGI [34]: > 100 µM | TGI [35]: > 100 µM | TGI [36]: > 100 µM | TGI [37]: > 100 µM | TGI [38]: > 100 µM | TGI [57]: > 100 µM | TGI [39]: > 100 µM | TGI [40]: > 100 µM | TGI [41]: > 100 µM | TGI [42]: > 100 µM | TGI [43]: > 100 µM | TGI [44]: > 100 µM | TGI [45]: > 100 µM | TGI [46]: > 100 µM | TGI [47]: > 100 µM | TGI [48]: > 100 µM | TGI [49]: > 100 µM | TGI [50]: > 100 µM | TGI [51]: > 100 µM | TGI [52]: > 100 µM | TGI [53]: > 100 µM | TGI [54]: > 100 µM
